Source: patent US20060063198A1, “Diagnostic marker” (priority 2004, published 2006)
No end group written: not given here. *: point of attachment. For = O=C*

Tests used:
human neutrophils = assay: Neutrophil chemotaxis in a modified Boyden chamber assay; assay type: cell-based; conditions: synthetic peptides, fMLP as comparator
Method: Serum and plasma samples were collected from six female healthy volunteers aged 20-29, and ten ACS patients. Clinical diagnosis of the ten ACS patients indicated one unstable angina patient and 9 patients with acute myocardial infarction (AMI). The unstable angina patient arrived to the Emergency Department 30.5 hours after symptoms onset. Seven of the nine AMI patients presented to the Emergency Department within 1.5-3.5 hours after onset of chest pain. The other two AMI patients arrived 10 hours and 24 hours after symptoms onset. Blood samples were collected upon arrival of the patient, centrifuged and stored at −70° C. for up to 21 days. Serum and plasma samples were tested for neutrophil chemotactic activity using a modified Boyden chamber technique and human neutrophils as indicator cells (see, for example, Elgebaly, S. A., et al. J. Mol. Cell. Cardiol. 21:585-593, 1989; and Elgebaly, S. A., et al. Am. J. Pathol. 137:1233-1241, 1990, each of which is incorporated by reference in its entirety).
Samples were also fractionated using high performance liquid chromatography (HPLC) and a size exclusion column (1-300 kDa). The 5 kDa and lower molecular weight fractions were collected and assayed for neutrophil chemotactic activity. The standard synthetic chemoattractant fMet-Leu-Phe (f-MLP) was used as the positive control for 100% chemotactic response. Hank's Balanced Salt Solution (HBSS) was the negative control for random migration. Neutrophil migration was reported as chemotactic index of counted cells trapped within 10-micron membrane layer. The average of three readings were calculated for each filter. [formula]
(§1) A synthetic peptide having the sequence: N-formyl-[…] Synthetic peptides of sequence: MIINHNLAAINSHR (i.e., unmodified peptide 3) and of sequence: […]

neutrophils = assay: Chemotactic activity retained after overnight refrigeration; assay type: cell-based; conditions: unlike fMLP
Description: as §1

Substance | chemotaxis of neutrophils (human neutrophils) | chemotactic activity when refrigerated overnight (neutrophils)
N-formyl-MIINHNLAAINSHRSPGADGNGGEAMPGGGK (For-MIINHNLAAINSHRSPGADGNGGEAMPGGGK) [N-formyl-3+9+K] | promoted strong chemotaxis | retained chemotactic activity
N-formyl-MIINHNLAAINSHR (For-MIINHNLAAINSHR) [N-formyl-3] | promoted strong chemotaxis | retained chemotactic activity
MIINHNLAAINSHR [sequence 3] | promoted chemotaxis to a lesser degree | –
N-formyl-MNTRAMNDASGR (For-MNTRAMNDASGR) [N-formyl-5] | promote chemotaxis to a lesser degree than fMLP | –
SPGADGNGGEAMPGGG [sequence 9] | no chemotactic activity | –
MIINHNLAAINSHRSPGADGNGGEAMPGGG [3+9] | promoted chemotaxis to a lesser degree | retained chemotactic activity
N-formyl-MENHK [N-formyl-7] | promote chemotaxis to a lesser degree than fMLP | –
